For this assay, the target named is T1, recombinant RORγ Ligand Binding Domain (LBD) protein (Homo sapiens, UniProt P51449).
T1 construct: 6×His; GST
T1 sequence (P51449 269-508 limits assumed): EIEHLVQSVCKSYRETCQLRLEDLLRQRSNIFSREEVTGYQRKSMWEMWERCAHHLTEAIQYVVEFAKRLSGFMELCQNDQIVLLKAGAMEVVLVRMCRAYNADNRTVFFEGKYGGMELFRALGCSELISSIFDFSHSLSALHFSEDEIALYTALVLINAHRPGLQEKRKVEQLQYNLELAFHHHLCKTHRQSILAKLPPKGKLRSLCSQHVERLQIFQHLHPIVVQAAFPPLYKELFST
The assay is described as follows: Radio-Ligand RORγ Binding Assay (Assay 1). The following applies: read-out: Avg ROR Bind Ki. The procedure: Radio-Ligand RORγ Binding Assay (Assay 1)
Compounds described herein were tested for ability to bind to RORγ in a cell-free competition assay with commercially available radio-ligand (RL), 25-hydroxy [26,27-^3H]-cholesterol (PerkinElmer, Cat. #NET674250UC), for a ligand binding site on a recombinant RORγ Ligand Binding Domain (LBD) protein expressed as a 6×His-Glutathione-S-Transferase (GST) fusion. The assay was performed in 96-well SPA plates (PerkinElmer, Cat. #1450-401) in 50 mM HEPES buffer, pH 7.4, containing 150 mM NaCl, 5 mM MgCl2, 10% (v/v) glycerol, 2 mM CHAPS, 0.5 mM 3-octylglucopyranoside and 5 mM DTT. Tested compounds were dissolved in DMSO, and semi-log (3.162×) serial dilutions of the compounds were prepared in the same solvent. Two μL of the DMSO solutions were mixed with 28 μL of 8.6 nM 25-hydroxy [26,27-^3H]-cholesterol and 50 μL of 24 nM RORγ LBD. The plate was shaken at 700 rpm for 20 min and incubated for 10 min at rt, after which 40 μL of poly-Lys YSi SPA beads (PerkinElmer, Cat. #RPNQ0010) were added to achieve 50 μg of the beads per well. The plate was incubated on an orbital shaker for 20 min and then for 10 min without agitation at rt. SPA signal for tritium beta radiation was registered on PerkinElmer Microbeta plate reader. […] The percent inhibition vs. concentration data were fit into a four-parameter model, and IC50 values were calculated from the fit as the concentrations corresponding to the inflection points on the dose-response curves. Inhibitory constants (Ki) were calculated using the following equation, where [RL] is the concentration in the assay and KD is a dissociation constant of 25-hydroxy [26,27-^3H]-cholesterol: […]

Setting [1] is: radio-ligand competition, 25-hydroxy [26,27-3H]-cholesterol, RORγ LBD.
Setting [2] is: competition with 25-hydroxy [26,27-3H]-cholesterol, SPA, class symbols.

This is an account of results in patent US11008340B2, “Modulators of ROR-gamma” (Vitae Pharmaceuticals, LLC, priority 2015, dated 2021).

Like-named read-outs stand apart in the source and are kept apart here.

Regarding `CC[C@@H]1CN(c2ncc(C(F)(F)F)cn2)Cc2cc(C(=O)NCc3ccc(S(=O)(=O)CC)cn3)ccc21` (single isomer, unassigned) [Hy7-10.2], the Ki under setting [1] was in the range of 100 to 1000 nM.
Regarding `CCS(=O)(=O)c1ccc(CNC(=O)c2ccc3c(c2)CN(c2ncc(C(F)(F)F)cn2)C[C@@H]3C(C)C)cc1` (single isomer, unassigned) [Hy7-15.2], under setting [1], the Ki was < 100 nM.
With `CCOC(=O)c1cnc(N2Cc3cc(C(=O)NCc4ccc(S(=O)(=O)CC)cc4)ccc3[C@@H](C(C)C)C2)nc1` (single isomer, unassigned) [Hy7-16.2], the Ki under setting [1] is 100 to 1000 nM.
For the compound `CC[C@H]1CN(c2ncc(C(F)(F)F)cn2)Cc2cc(C(=O)N[C@@H](CO)c3ccc(S(=O)(=O)CC)cn3)ccc21` (single isomer, unassigned) [Hy7-18.3], the Ki under setting [1] lay in the range of 100 to 1000 nM.
The same measure, in the same setting: the same measure for `CCS(=O)(=O)c1ccc(CNC(=O)c2ccc3c(c2)CN(c2ncc(N4CCOCC4)cn2)C[C@H]3C(C)C)cc1` (single isomer, unassigned) [Hy7-19.1]: 100 to 1000 nM.
As to `CCS(=O)(=O)c1ccc(CNC(=O)c2ccc3c(c2)CN(c2ncc(N4CCOCC4)cn2)C[C@@H]3C(C)C)cc1` (single isomer, unassigned) [Hy7-19.2], under setting [1], the Ki was > 1000 nM.
As for `CC[C@H]1CN(c2ncc(-c3cccc(OC)n3)cn2)Cc2cc(C(=O)NCc3ccc(S(=O)(=O)CC)cc3)ccc21` (single isomer, unassigned) [Hy7-20.2], the Ki under setting [1] lay within 100 to 1000 nM.
For the compound `CCS(=O)(=O)c1ccc(CNC(=O)c2ccc3c(c2)CN(c2ncc(-c4ccc(=O)[nH]c4)cn2)C[C@@H]3C(C)C)cc1` (single isomer, unassigned) [Hy7-21.2], the Ki under setting [1] is > 1000 nM.
On to `CCS(=O)(=O)c1ccc(CNC(=O)c2ccc3c(c2)CN(c2ncc(-c4ccnc(OC)c4)cn2)C[C@@H]3C(C)C)cc1` (single isomer, unassigned) [Hy7-23.2], for which the Ki under setting [1] was in the range of 100 to 1000 nM.
For the compound `CCS(=O)(=O)c1ccc(CNC(=O)c2ccc3c(c2)CN(c2ncc(-c4ccc(=O)n(C)c4)cn2)C[C@@H]3C(C)C)cc1` (single isomer, unassigned) [Hy7-24.2], under setting [1], the Ki is > 1000 nM.
Take `CCS(=O)(=O)c1ccc(CNC(=O)c2ccc3c(c2)CN(c2ncc(-c4ccn(C)c(=O)c4)cn2)C[C@@H]3C(C)C)cc1` (single isomer, unassigned) [Hy7-25.2]: under setting [1], the Ki is > 1000 nM.
With `CC[C@@H]1CN(C2CCOCC2)Cc2cc(C(=O)N[C@@H](CO)c3ccc(S(=O)(=O)CC)cc3)ccc21` (single isomer, unassigned) [Hy7-30.1], the Ki under setting [1] lay in the range of 100 to 1000 nM.
Take `CC[C@H]1CN(C2CCC(F)(F)CC2)Cc2cc(C(=O)N[C@@H](CO)c3ccc(S(=O)(=O)CC)cc3)ccc21` (single isomer, unassigned) [Hy7-32.2]: under setting [1], the Ki is 100 to 1000 nM.
For `CCOC(=O)c1cnc(N2Cc3cc(C(=O)N[C@@H](CO)c4ccc(S(=O)(=O)CC)cc4)ccc3[C@@H](CC)C2)nc1` (single isomer, unassigned) [Hy7-34.2], the Ki under setting [1] is < 100 nM.
On the same count and under the same terms, the same measure for `CCC1CN(C2CCC(C(F)(F)F)CC2)Cc2cc(C(=O)NC(CO)c3ccc(S(=O)(=O)CC)cc3)ccc21` (single isomer, unassigned) [Hy7-35.3]: < 100 nM.
With `CCC1CN(C2CCC(C(F)(F)F)CC2)Cc2cc(C(=O)NC(CO)c3ccc(S(=O)(=O)CC)cc3)ccc21` (single isomer, unassigned) [Hy7-35.4], the Ki under setting [1] fell in the range of 100 to 1000 nM.
On the same count and under the same terms, the same measure for `CC[C@H]1CN(c2ncc(C(F)(F)F)cc2C#N)Cc2cc(C(=O)N[C@@H](CO)c3ccc(S(=O)(=O)CC)cc3)ccc21` (single isomer, unassigned) [Hy7-37.2]: < 100 nM; for `CCS(=O)(=O)c1ccc(CNC(=O)c2ccc3c(Oc4ccc(C(F)(F)F)cc4)nccc3c2)cc1` [Hy1A-2, N-(4-(ethylsulfonyl)benzyl)-1-(4-(trifluoromethyl)phenoxy)isoquinoline-6-carboxamide]: 100 to 1000 nM; for `CCS(=O)(=O)c1ccc(CNC(=O)c2ccc3c(OCc4ccc(C(F)(F)F)cc4)cc(C)nc3c2)cc1` [Hy1B-1, N-(4-(ethylsulfonyl)benzyl)-2-methyl-4-((4-(trifluoromethyl)benzyl)oxy)quinoline-7-carboxamide]: 100 to 1000 nM.
Take `CCS(=O)(=O)c1ccc(CNC(=O)c2ccc3c(OC[C@H]4CC[C@H](C(F)(F)F)CC4)cc(C)nc3c2)cc1` [Hy1B-2, N-(4-(ethylsulfonyl)benzyl)-2-methyl-4-(((1r,4r)-4-(trifluoromethyl)cyclohexyl)methoxy)quinoline-7-carboxamide]: the Ki under setting [1] was 100 to 1000 nM.
With `CCS(=O)(=O)c1ccc([C@H](CO)NC(=O)c2ccc3c(OC[C@H]4CC[C@H](C(F)(F)F)CC4)cc(C)nc3c2)cc1` [Hy1B-4, N-((R)-1-(4-(ethylsulfonyl)phenyl)-2-hydroxyethyl)-2-methyl-4-(((1r,4R)-4-(trifluoromethyl)cyclohexyl)methoxy)quinoline-7-carboxamide], under setting [1], the inhibitory constant (Ki) was 100 to 1000 nM.
With `CCS(=O)(=O)c1ccc([C@H](CO)NC(=O)c2ccc3c(OC[C@H]4CC[C@H](C(F)(F)F)CC4)ncnc3c2)cc1` [Hy1C-1, N-((R)-1-(4-(ethylsulfonyl)phenyl)-2-hydroxyethyl)-4-(((1r,4R)-4-(trifluoromethyl)cyclohexyl)methoxy)quinazoline-7-carboxamide], under setting [2], the Ki lay in the range of 100 to 1000 nM.
On to `CCS(=O)(=O)c1ccc(CNC(=O)c2ccc3c(OC[C@H]4CC[C@H](C(F)(F)F)CC4)ncnc3c2)cc1` [Hy1C-2, N-(4-(ethylsulfonyl)benzyl)-4-(((1r,4r)-4-(trifluoromethyl)cyclohexyl)methoxy)quinazoline-7-carboxamide], for which the Ki under setting [2] was 100 to 1000 nM.
Take `CCS(=O)(=O)c1ccc(CNC(=O)c2cnc3c(C4CC4)n(C[C@H]4CC[C@H](C(F)(F)F)CC4)nc3c2)nc1` [Hy3B-3, 3-cyclopropyl-N-((5-(ethylsulfonyl)pyridin-2-yl)methyl)-2-(((1r,4r)-4-(trifluoromethyl)cyclohexyl)methyl)-2H-pyrazolo[4,3-b]pyridine-6-carboxamide]: the Ki under setting [1] fell in the range of 100 to 1000 nM.
In the case of `CCS(=O)(=O)c1ccc([C@H](CO)NC(=O)c2cnc3c(C4CC4)n(C[C@H]4CC[C@H](C(F)(F)F)CC4)nc3c2)nc1` [Hy3B-4, 3-cyclopropyl-N-((R)-1-(5-(ethylsulfonyl)pyridin-2-yl)-2-hydroxyethyl)-2-(((1r,4R)-4-(trifluoromethyl)cyclohexyl)methyl)-2H-pyrazolo[4,3-b]pyridine-6-carboxamide], under setting [1], the Ki is < 100 nM.
For the compound `CCS(=O)(=O)c1ccc(CNC(=O)c2cc3ccnc(OC[C@H]4CC[C@H](C(F)(F)F)CC4)c3[nH]2)cc1` [Hy4-5, N-(4-(ethylsulfonyl)benzyl)-7-(((1r,4r)-4-(trifluoromethyl)cyclohexyl)methoxy)-1H-pyrrolo[2,3-c]pyridine-2-carboxamide], the Ki (radio-ligand competition, RORγ LBD, head without unit (Tables 15, 17)) lay within 100 to 1000 nM.
`CCS(=O)(=O)c1ccc(CNC(=O)c2cn(C)c3c(Oc4ccc(C(F)(F)F)cc4)nccc23)cc1` [Hy5-1, N-(4-(ethylsulfonyl)benzyl)-1-methyl-7-(4-(trifluoromethyl)phenoxy)-1H-pyrrolo[2,3-c]pyridine-3-carboxamide]: under setting [1], the Ki was 100 to 1000 nM.
`CCS(=O)(=O)c1ccc(CNC(=O)c2c[nH]c3c(OC[C@H]4CC[C@H](C(F)(F)F)CC4)nccc23)cc1` [Hy5-2, N-(4-(ethylsulfonyl)benzyl)-7-(((1r,4r)-4-(trifluoromethyl)cyclohexyl)methoxy)-1H-pyrrolo[2,3-c]pyridine-3-carboxamide]: the Ki under setting [1] is 100 to 1000 nM.
`CCS(=O)(=O)c1ccc(CNC(=O)c2cn(C)c3c(OC[C@H]4CC[C@H](C(F)(F)F)CC4)nccc23)cc1` [Hy5-4, N-(4-(ethylsulfonyl)benzyl)-1-methyl-7-(((1r,4r)-4-(trifluoromethyl)cyclohexyl)methoxy)-1H-pyrrolo[2,3-c]pyridine-3-carboxamide]: the Ki under setting [1] lay within 100 to 1000 nM.
Regarding `CCS(=O)(=O)c1ccc([C@H](CO)NC(=O)c2cn(C)c3c(OC[C@H]4CC[C@H](C(F)(F)F)CC4)nccc23)cc1` [Hy5-5, N-((R)-1-(4-(ethylsulfonyl)phenyl)-2-hydroxyethyl)-1-methyl-7-(((1r,4R)-4-(trifluoromethyl)cyclohexyl)methoxy)-1H-pyrrolo[2,3-c]pyridine-3-carboxamide], the Ki under setting [1] fell in the range of 100 to 1000 nM.
For `CCS(=O)(=O)c1ccc(CNC(=O)c2cnc3c(c2)CN(c2ncc(C(F)(F)F)cn2)CC3(C)C)cc1` [Hy7B-1, N-(4-(ethylsulfonyl)benzyl)-8,8-dimethyl-6-(5-(trifluoromethyl)pyrimidin-2-yl)-5,6,7,8-tetrahydro-1,6-naphthyridine-3-carboxamide], the Ki under setting [1] was in the range of 100 to 1000 nM.

What is called Ki is the dissociation constant of the complex between target and ligand, obtained from inhibition or displacement.
